≈ marks a conversion by molar mass, not a printed value.
System: Mycobacterium tuberculosis H37Rv
Test: Mycobacterium tuberculosis H37Rv Inhibition Assay
Format: cell-based
Details: ATCC 25618 / H37Rv, H37Rv strain (ATCC25618), Middlebrook 7H9, resazurin fluorescence, read-out: MtB MIC

SMILES	MIC [mg/L]
Cc1ncc(CNC2CCN(C[C@@H]3Cn4c(=O)ccc5ccc(=O)n3c54)CC2)cc1Cl.Cl [Example 1, (1R)-1-[(4-{[(5-chloro-6-methyl-3-pyridinyl)methyl]amino}-1-piperidinyl)methyl]-1,2-dihydro-4H,9H-imidazo[1,2,3-ij]-1,8-naphthyridine-4,9-dione hydrochloride]	0.04
Cc1ncc(CNC2CCN(C[C@@H]3Cn4c(=O)ccc5ncc(=O)n3c54)CC2)cc1Cl.Cl [Example 2, (2R)-2-[(4-{[(5-chloro-6-methyl-3-pyridinyl)methyl]amino}-1-piperidinyl)methyl]-1,2-dihydro-3H,8H-2a,5,8a-triazaacenaphthylene-3,8-dione hydrochloride]	0.04
Cl.O=c1ccc2ncc(=O)n3c2n1C[C@H]3CN1CCC(NCc2ccc(Cl)c(Cl)c2)CC1 [Example 3, (2R)-2-[(4-{[(3,4-dichlorophenyl)methyl]amino}-1-piperidinyl)methyl]-1,2-dihydro-3H,8H-2a,5,8a-triazaacenaphthylene-3,8-dione]	0.04
Cl.O=c1ccc2ncc(=O)n3c2n1C[C@H]3CN1CCC(NCc2ccc(F)c(C(F)(F)F)c2)CC1 [Example 4, (2R)-2-{[4-({[4-fluoro-3-(trifluoromethyl)phenyl]methyl}amino)-1-piperidinyl]methyl}-1,2-dihydro-3H,8H-2a,5,8a-triazaacenaphthylene-3,8-dione hydrochloride]	0.04
Cl.N#Cc1cc(CNC2CCN(C[C@@H]3Cn4c(=O)ccc5ncc(=O)n3c54)CC2)ccc1F [Example 5, 5-{[(1-{[(2R)-3,8-dioxo-1,2-dihydro-3H,8H-2a,5,8a-triazaacenaphthylen-2-yl]methyl}-4-piperidinyl)amino]methyl}-2-fluorobenzonitrile hydrochloride]	0.11
Cc1cc(CNC2CCN(C[C@@H]3Cn4c(=O)ccc5ncc(=O)n3c54)CC2)ccc1F.Cl [Example 6, (2R)-2-[(4-{[(4-fluoro-3-methylphenyl)methyl]amino}-1-piperidinyl)methyl]-1,2-dihydro-3H,8H-2a,5,8a-triazaacenaphthylene-3,8-dione hydrochloride]	0.29
Cc1cc(CNC2CCN(C[C@@H]3Cn4c(=O)ccc5ccc(=O)n3c54)CC2)ncc1Cl.Cl [Example 7, (1R)-1-[(4-{[(5-chloro-4-methyl-2-pyridinyl)methyl]amino}-1-piperidinyl)methyl]-1,2-dihydro-4H,9H-imidazo[1,2,3-ij]-1,8-naphthyridine-4,9-dione hydrochloride]	0.3
Cc1ncc(CNC2CCN(C[C@@H]3Cn4c(=O)cnc5ccc(=O)n3c54)CC2)cc1Cl.Cl [Example 8, (1R)-1-[(4-{[(5-chloro-6-methyl-3-pyridinyl)methyl]amino}-1-piperidinyl)methyl]-1,2-dihydro-3H,8H-2a,5,8a-triazaacenaphthylene-3,8-dione hydrochloride]	0.08
O=c1cnc2ccc(=O)n3c2n1C[C@H]3CN1CCC(NCc2ccc(Cl)c(Cl)c2)CC1 [Example 10, (1R)-1-[(4-{[(3,4-dichlorophenyl)methyl]amino}-1-piperidinyl)methyl]-1,2-dihydro-3H,8H-2a,5,8a-triazaacenaphthylene-3,8-dione]	< 0.02
O=c1cnc2ccc(=O)n3c2n1C[C@H]3CN1CCC(NCc2ccc(C(F)(F)F)nc2)CC1 [Example 11, (1R)-1-{[4-({[6-(trifluoromethyl)-3-pyridinyl]methyl}amino)-1-piperidinyl]methyl}-1,2-dihydro-3H,8H-2a,5,8a-triazaacenaphthylene-3,8-dione]	0.14 (≈ 0.304 µM)
Cc1ncc(CNC2CCN(C[C@@H]3Cn4c(=O)ccc5ccc(=O)n3c54)CC2)cc1Br.Cl [Example 12, (1R)-1-[(4-{[(5-bromo-6-methyl-3-pyridinyl)methyl]amino}-1-piperidinyl)methyl]-1,2-dihydro-4H,9H-imidazo[1,2,3-ij]-1,8-naphthyridine-4,9-dione hydrochloride]	< 0.019
Cc1cc(CNC2CCN(C[C@@H]3Cn4c(=O)ccc5ccc(=O)n3c54)CC2)cnc1C [Example 13, (1R)-1-[(4-{[(5,6-dimethyl-3-pyridinyl)methyl]amino}-1-piperidinyl)methyl]-1,2-dihydro-4H,9H-imidazo[1,2,3-ij]-1,8-naphthyridine-4,9-dione]	1.05 (≈ 2.5 µM)
Cc1cc(CNC2CCN(CC3Cn4c(=O)ccc5ncc(=O)n3c54)CC2)cnc1C (stereo not drawn) [Example 14, 2-[(4-{[(5,6-dimethyl-3-pyridinyl)methyl]amino}-1-piperidinyl)methyl]-1,2-dihydro-3H,8H-2a,5,8a-triazaacenaphthylene-3,8-dione]	2.1 (≈ 5 µM)
O=c1ccc2ncc(=O)n3c2n1CC3CN1CCC(NCc2cnc(Cl)c(Cl)c2)CC1 (stereo not drawn) [Example 15, 2-[(4-{[(5,6-dichloro-3-pyridinyl)methyl]amino}-1-piperidinyl)methyl]-1,2-dihydro-3H,8H-2a,5,8a-triazaacenaphthylene-3,8-dione]	< 0.018
O=c1ccc2ncc(=O)n3c2n1CC3CN1CCC(NCc2ccc(Cl)c(C(F)(F)F)c2)CC1 (stereo not drawn) [Example 16, 2-{[4-({[4-chloro-3-(trifluoromethyl)phenyl]methyl}amino)-1-piperidinyl]methyl}-1,2-dihydro-3H,8H-2a,5,8a-triazaacenaphthylene-3,8-dione]	0.077 (≈ 0.156 µM)
O=c1ccc2ncc(=O)n3c2n1CC3CN1CCC(NCc2ccc(C(F)(F)F)nn2)CC1 (stereo not drawn) [Example 17, 2-{[4-({[6-(trifluoromethyl)-3-pyridazinyl]methyl}amino)-1-piperidinyl]methyl}-1,2-dihydro-3H,8H-2a,5,8a-triazaacenaphthylene-3,8-dione]	0.865 (≈ 1.87 µM)
O=c1ccc2ccc(=O)n3c2n1C[C@H]3CN1CCC(NCc2ccc(C(F)(F)F)nn2)CC1 [Example 18, (1R)-1-{[4-({[6-(trifluoromethyl)-3-pyridazinyl]methyl}amino)-1-piperidinyl]methyl}-1,2-dihydro-4H,9H-imidazo[1,2,3-ij]-1,8-naphthyridine-4,9-dione]	0.432 (≈ 0.938 µM)
Cl.O=c1ccc2ncc(=O)n3c2n1CC3CN1CCC(NCc2ccc(C(F)(F)F)nc2)CC1 (stereo not drawn) [Example 20, 2-{[4-({[6-(trifluoromethyl)-3-pyridinyl]methyl}amino)-1-piperidinyl]methyl}-1,2-dihydro-3H,8H-2a,5,8a-triazaacenaphthylene-3,8-dione hydrochloride]	0.311
O=c1ccc2ncc(=O)n3c2n1CC3CN1CCC(NCc2ccc(Cl)cc2)CC1 (stereo not drawn) [Example 21, 2-[(4-{[(4-chlorophenyl)methyl]amino}-1-piperidinyl)methyl]-1,2-dihydro-3H,8H-2a,5,8a-triazaacenaphthylene-3,8-dione]	0.266 (≈ 0.625 µM)
O=c1ccc2ncc(=O)n3c2n1CC3CN1CCC(NCc2cccc(Cl)c2)CC1 (stereo not drawn) [Example 22, 2-[(4-{[(3-chlorophenyl)methyl]amino}-1-piperidinyl)methyl]-1,2-dihydro-3H,8H-2a,5,8a-triazaacenaphthylene-3,8-dione]	1.06 (≈ 2.5 µM)

Same assay, conditions: ATCC 25618 / H37Rv, read-out: MtB MIC

SMILES	MIC [mg/L]
O=c1ccc2ccc(=O)n3c2n1C[C@H]3CN1CCC(NCc2ccc(C(F)(F)F)nc2)CC1 [Example 9, (1R)-1-{[4-({[6-(trifluoromethyl)-3-pyridinyl]methyl}amino)-1-piperidinyl]methyl}-1,2-dihydro-4H,9H-imidazo[1,2,3-ij]-1,8-naphthyridine-4,9-dione]	0.14 (≈ 0.305 µM)

Same assay, conditions: H37Rv inhibition assay, read-out: MIC value

SMILES	MIC [mg/L]
Cc1cc(CNC2CCN(C[C@@H]3Cn4c(=O)ccc5ccc(=O)n3c54)CC2)cnc1C [Example 13, (1R)-1-[(4-{[(5,6-dimethyl-3-pyridinyl)methyl]amino}-1-piperidinyl)methyl]-1,2-dihydro-4H,9H-imidazo[1,2,3-ij]-1,8-naphthyridine-4,9-dione]	> 1
Cc1cc(CNC2CCN(CC3Cn4c(=O)ccc5ncc(=O)n3c54)CC2)cnc1C (stereo not drawn) [Example 14, 2-[(4-{[(5,6-dimethyl-3-pyridinyl)methyl]amino}-1-piperidinyl)methyl]-1,2-dihydro-3H,8H-2a,5,8a-triazaacenaphthylene-3,8-dione]	> 1
O=c1ccc2ncc(=O)n3c2n1CC3CN1CCC(NCc2cccc(Cl)c2)CC1 (stereo not drawn) [Example 22, 2-[(4-{[(3-chlorophenyl)methyl]amino}-1-piperidinyl)methyl]-1,2-dihydro-3H,8H-2a,5,8a-triazaacenaphthylene-3,8-dione]	> 1

— US8097628B2, “Compounds” (Glaxo Group Limited, priority 2008, dated 2012)
